Experimental data taken from paper PMC7655034, “Identification of a dual TAOK1 and MAP4K5 inhibitor using a structure-based virtual screening approach” (Journal of Enzyme Inhibition and Medicinal Chemistry, 2020).
Where “and” joins values, the source holds several entries; their conditions need not be identical. Equal values may be shown once.

What was measured:
TAOK1 = biological target: T1, TAOK1 (Homo sapiens, UniProt Q7L7X3); test: Enzymatic assay (LanthaScreen, Thermo Fisher); type: biochemical; details: for Inhibition percentage at 10 μM TAOK1 / inhibition at 10 µM: 10 μM compound, average of two replicates; for inhibition at 10 µM: read-out: Inhibition percentage at 10 μM TAOK1
T1 construct: purchased Thermo Fisher Scientific (outsourced assay service)
T1 sequence (Q7L7X3 1-1001): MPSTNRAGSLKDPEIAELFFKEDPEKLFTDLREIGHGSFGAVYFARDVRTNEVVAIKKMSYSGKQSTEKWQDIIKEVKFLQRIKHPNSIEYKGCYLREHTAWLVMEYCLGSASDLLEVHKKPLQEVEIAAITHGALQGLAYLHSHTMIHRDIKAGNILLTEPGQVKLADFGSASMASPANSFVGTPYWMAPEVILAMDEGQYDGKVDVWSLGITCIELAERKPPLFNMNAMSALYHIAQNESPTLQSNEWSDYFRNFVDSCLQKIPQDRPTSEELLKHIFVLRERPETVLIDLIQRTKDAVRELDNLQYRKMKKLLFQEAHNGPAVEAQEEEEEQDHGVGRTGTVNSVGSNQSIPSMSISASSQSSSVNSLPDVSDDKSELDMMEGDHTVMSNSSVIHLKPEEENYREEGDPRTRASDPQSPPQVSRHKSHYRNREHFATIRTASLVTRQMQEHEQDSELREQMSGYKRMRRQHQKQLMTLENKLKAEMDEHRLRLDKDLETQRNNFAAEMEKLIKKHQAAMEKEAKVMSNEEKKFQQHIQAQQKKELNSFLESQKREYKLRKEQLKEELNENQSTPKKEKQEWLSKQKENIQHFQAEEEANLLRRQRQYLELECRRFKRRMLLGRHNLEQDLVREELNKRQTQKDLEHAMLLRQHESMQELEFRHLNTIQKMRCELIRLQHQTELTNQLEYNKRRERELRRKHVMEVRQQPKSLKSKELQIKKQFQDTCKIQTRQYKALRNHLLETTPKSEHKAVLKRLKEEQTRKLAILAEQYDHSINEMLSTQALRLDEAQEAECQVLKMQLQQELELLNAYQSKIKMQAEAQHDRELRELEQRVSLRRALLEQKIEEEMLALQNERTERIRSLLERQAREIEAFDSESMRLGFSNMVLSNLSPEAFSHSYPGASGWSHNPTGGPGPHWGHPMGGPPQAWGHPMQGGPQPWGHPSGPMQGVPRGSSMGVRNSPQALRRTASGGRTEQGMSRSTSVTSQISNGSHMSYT
Procedure: (§1) The enzymatic assay was outsourced to Thermo Fisher Scientific to conduct. They used LanthaScreen and Z´-LYTE technology, which were both robust homogeneous assays method by Fluorescence Resonance Energy Transfer (FRET) to evaluate TAOK1 and MAP4K5, respectively. Briefly, the test compound was co-incubated with fluorescein-labelled substrate, kinase, ATP, kinase buffer and development reagent for reaction. After 1 h, the stop solution (EDTA) was added and then the results were determined by a fluorescence reader. The data was shown as an average of two replicates.

[1] = test system: panel of around 70 kinases; test: Kinase selectivity (Thermo Fisher SelectScreen kinome panel); type: biochemical; details: concentration selected based on IC50 values
Procedure: The kinase selectivity of selected compounds was performed by Thermo Fisher Select Screen service. A kinome screen occurred across a panel of roughly 70 kinases. Conditions and analyses are available online (www.thermofisher.com/selectscreen).
To evaluate the selectivity of the inhibitors identified in this study, a biochemical assay was conducted by ThermoFisher Scientific. A panel of around 70 kinases from different kinase families as well as all available members of the STE kinase family, was selected for testing (Supplemental Figure 3). The concentration of the compound was selected based on their IC50 values. […] The target kinase in this study, MAP4K5 and TAOK1, belong to the STE20 kinase family. Of the kinases inhibited by compounds 1 and 2, we found eight and three of the kinases to belong to the STE20 kinase family. Together, this implies that the inhibitors identified in this study are selective towards the STE20 kinase family.

HCT116, HT29 and H1299 = test: Single-concentration SRB and MTT assays in cancer cell lines; type: cell-based, Human; details: for Effect in cell-based experiments: HCT116, HT-29, H1299
Procedure: (§2) Human colorectal cancer cell lines HCT116, HT-29 and human lung cancer cell line, H1299 were purchased from the Bioresource Collection and Research Centre (BCRC, Taiwan) and were incubated either in McCoy’s 5 A medium or RPMI-1640 medium (Thermo Fisher Scientific, Walthma, MA, USA), supplemented with 10% foetal bovine serum and 1% Penicillin-Streptomycin-Amphotericin B Solution (Biological Industries, Kibbutz Beit-Haemek, Israel) at 37 °C in a humidified atmosphere with 5% CO2.
(§3) Cell viability was determined by MTT (3–(4,5-dimethylthiazol-2-yl)-2,5-diphenyltetrazolium bromide, Sigma Chemical Co, St. Louis, MO, USA) assay. Cells were seeded in 96-well plates at a density of 5,000 cells/well in a regular culture medium overnight. Then, the cells were treated with various concentrations of indicated compounds for 72 h. After that, the medium was removed, 100 µL MTT solution (0.5 mg/ml in phosphate-buffered saline, PBS) was added to each well and then incubated for 1 h at 37 °C. The insoluble formazan dyes, representing the active mitochondrial dehydrogenase in live cells, were dissolved in the dimethyl sulfoxide (DMSO). The absorbance was analysed by an ELISA reader (Beckman Coulter, Brea, CA, USA) at 550 nm.
(§4) SRB (sulforhodamine B, Sigma Chemical Co, St Louis, MO, USA) assay was used to analyse cell proliferation. Cells were seeded in 96-well plates at a density of 5000 cells/well and then treated with various concentrations of indicated compounds for 48 h. Cells were fixed with 10% TCA (trichloroacetic acid), washed with PBS, and stained with 100 µL SRB solution (0.4% SRB in 1% acetic acid) for 15 min. Then, cells were washed three times with 1% acetic acid and dissolved in the trizma base solution (10 mM). The absorbance was measured by an ELISA reader (Beckman Coulter Diagnostics, Brea, CA, USA) at […].

MAP4K5 = biological target: T2, MAP4K5 (Homo sapiens, UniProt Q9Y4K4); test: Enzymatic assay (Z'-LYTE, Thermo Fisher); type: biochemical; details: for Inhibition percentage at 10 μM MAP4K5 / inhibition at 10 µM: 10 μM compound, average of two replicates; for inhibition at 10 µM: read-out: Inhibition percentage at 10 μM MAP4K5
T2 construct: purchased Thermo Fisher Scientific (outsourced assay service)
T2 sequence (Q9Y4K4 whole entry): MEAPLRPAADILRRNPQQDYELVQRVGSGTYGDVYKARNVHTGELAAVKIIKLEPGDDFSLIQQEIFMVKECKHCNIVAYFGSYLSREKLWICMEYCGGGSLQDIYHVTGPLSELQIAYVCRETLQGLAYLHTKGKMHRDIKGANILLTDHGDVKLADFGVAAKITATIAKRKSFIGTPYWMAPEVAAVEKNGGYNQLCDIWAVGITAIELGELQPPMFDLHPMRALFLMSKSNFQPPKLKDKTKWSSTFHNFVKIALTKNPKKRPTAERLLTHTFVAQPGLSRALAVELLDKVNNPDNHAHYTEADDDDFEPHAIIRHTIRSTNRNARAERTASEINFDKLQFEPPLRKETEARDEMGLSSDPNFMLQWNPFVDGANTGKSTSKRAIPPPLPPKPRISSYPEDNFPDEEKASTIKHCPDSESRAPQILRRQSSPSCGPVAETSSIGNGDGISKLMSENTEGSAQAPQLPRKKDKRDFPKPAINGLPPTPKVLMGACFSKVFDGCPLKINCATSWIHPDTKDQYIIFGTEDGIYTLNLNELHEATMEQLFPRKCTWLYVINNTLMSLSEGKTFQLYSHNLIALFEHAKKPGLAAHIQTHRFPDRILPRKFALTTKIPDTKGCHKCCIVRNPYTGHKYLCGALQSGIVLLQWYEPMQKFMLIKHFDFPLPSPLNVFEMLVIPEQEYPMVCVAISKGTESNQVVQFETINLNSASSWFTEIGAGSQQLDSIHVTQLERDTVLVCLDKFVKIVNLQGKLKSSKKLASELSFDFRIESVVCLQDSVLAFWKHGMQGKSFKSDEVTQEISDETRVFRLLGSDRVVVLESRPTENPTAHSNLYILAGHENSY
Procedure: as §1

HT-29 cells = test: Cell cycle distribution by flow cytometry; type: cell-based, Human
Procedure: The cell cycle distribution was measured by flow cytometry. HT-29 cells were treated with or without the indicated concentrations of compound 1 for 24 or 48 h or 72 h. The cells were harvested by trypsinizing and fixed in ice-cold 75% ethanol for 1 h at −20 °C. The samples were washed with PBS and resuspended in the proper amount of DNA extraction buffer, containing 0.2 M Na2HPO4 and 0.1 M citric acid pH 7.8, for 30 min. Then the cells were washed again with PBS and stained with propidium iodide solution containing 100 µg/ml RNaseA, 80 µg/ml propidium iodide and 0.1% Triton X-100, which were all in PBS. Finally, cell cycle distribution was determined and performed by utilising BD Accuri™ and C6 Software (BD Biosciences, Franklin Lakes, NJ, USA).

HT29 cells [2] = test: MTT cell viability assay; type: cell-based; details: Homo sapiens, HT-29, 72 h, read-out: IC50 (cell survival)
Procedure: as §2, §3

HCT116 cells [3] = test: MTT cell viability assay; type: cell-based; details: Homo sapiens, HCT-116, 72 h, read-out: IC50 (cell survival)
Procedure: as §2, §3

H1299 cells [4] = test: MTT cell viability assay; type: cell-based; details: Homo sapiens, NCI-H1299, 72 h, read-out: IC50 (cell survival)
Procedure: as §2, §3

HT29 cells [5] = test: SRB cell proliferation assay; type: cell-based; details: Homo sapiens, HT-29, 48 h, read-out: GI50 (50% of growth inhibition)
Procedure: as §2, §4

HCT116 cells [6] = test: SRB cell proliferation assay; type: cell-based; details: Homo sapiens, HCT-116, 48 h, read-out: GI50 (50% of growth inhibition)
Procedure: as §2, §4

H1299 cells [7] = test: SRB cell proliferation assay; type: cell-based; details: Homo sapiens, NCI-H1299, 48 h, read-out: GI50 (50% of growth inhibition)
Procedure: as §2, §4

## Nc1nc(N)c2nc(-c3ccc(O)cc3)c(-c3ccc(O)cc3)nc2n1 [Compound 2]
TAOK1
  IC50: 1.83 µM
  Inhibition percentage at 10 μM TAOK1: ≥ 50% and 84%
[1]
  Number of inhibited kinases belonging to the STE20 kinase family: three
  Number of kinases inhibited in panel: five
HCT116, HT29 and H1299
  Effect in cell-based experiments: limited effects
MAP4K5
  IC50: 2 µM
  Inhibition percentage at 10 μM MAP4K5: ≥ 50% and 77%

## O=C(Nc1nc2ccccc2[nH]1)c1ccc(C(=O)Nc2nc3ccccc3[nH]2)cc1 [Compound 5]
TAOK1
  inhibition at 10 µM: 1%
MAP4K5
  inhibition at 10 µM: 44%

## CC1=C(C(=O)Nc2cccc3c2C(=O)NC3=O)CC(C(=O)Nc2cccc3c2C(=O)NC3=O)=C(C)N1 [Compound 7]
TAOK1
  inhibition at 10 µM: 4%
MAP4K5
  inhibition at 10 µM: 47%

## CC(=O)Nc1ccc(Nc2nc(Cl)nc(Nc3ccc(NC(C)=O)cc3)n2)cc1 [Compound 6]
TAOK1
  inhibition at 10 µM: 12%
MAP4K5
  inhibition at 10 µM: 41%

## CCN1CCN(CCNc2nccc(-c3c(-c4cccc(O)c4)nc4sccn34)n2)S1(=O)=O [Compound 1]
TAOK1
  IC50: 4.15 µM
  Inhibition percentage at 10 μM TAOK1: ≥ 50% and 74%
HT-29 cells; HT29, 24 h treatment
  Number of G0/G1-phase cells: increased in a concentration-dependent manner
HT-29 cells; HT-29, 24 h
  Cell cycle effect: arrested cancer cells at the G0/G1 phase
[1]
  Number of inhibited kinases belonging to the STE20 kinase family: eight
  Number of kinases inhibited in panel: nine
HT29 cells [2]
  IC50: 13.3 µM
HCT116 cells [3]
  IC50: 13.3 µM
H1299 cells [4]
  IC50: 23.6 µM
HT29 cells [5]
  GI50: 6.8 µM
HCT116 cells [6]
  GI50: 3.9 µM
H1299 cells [7]
  GI50: 19.2 µM
HCT116, HT29 and H1299; 10 µM for 48 h (SRB), 30 µM for 72 h (MTT), HCT116, HT29, H1299
  Cancer cell proliferation (SRB) at 10 µM and survival (MTT) at 30 µM: significantly inhibited
MAP4K5
  IC50: 2.25 µM
  Inhibition percentage at 10 μM MAP4K5: ≥ 50% and 84%

## Nc1nnc(N)c2nc(-c3ccccc3)c(-c3ccccc3)nc12 [Compound 4]
TAOK1
  inhibition at 10 µM: 19%
MAP4K5
  inhibition at 10 µM: 54%

## Nc1ncnc2nc(-c3ccc(C(=O)c4ccc([N+](=O)[O-])cc4)cc3)[nH]c12 [Compound 3]
TAOK1
  IC50: 5.3 µM
  Inhibition percentage at 10 μM TAOK1: 63%
  inhibition at 10 µM: ≥ 50%
[1]
  Number of kinases inhibited in panel: 23 kinases
HCT116, HT29 and H1299
  Effect in cell-based experiments: limited effects
MAP4K5
  IC50: 6.28 µM
  Inhibition percentage at 10 μM MAP4K5: 51%
  inhibition at 10 µM: ≥ 50%
